Measurements taken from patent US12298319B2, “Method for measuring alpha value of muscarinic M1 receptor positive allosteric modulators” (Takeda Pharmaceutical Company Limited, priority 2017, dated 2025).

Columns and labels:
[1] = test system: layer 5 pyramidal neurons; experiment: Electrophysiology, current clamp of layer 5 pyramidal neurons in mPFC slices; assay type: cell-based, mouse; conditions: bath application, Compound D at 10 μM; for after hyperpolarization (AHP) / resting membrane potential (RMP): carbachol 10 M [sic] for 10 min; for after depolarization (ADP): carbachol for 10 min as printed
Description: Experiments were performed on coronal brain slices of the medial prefrontal cortex (mPFC) from 4-week-old male C57BL/6 mice. The animals were quickly sacrificed and the brain was placed in an ice-cold NMDG artificial cerebrospinal fluid (ACSF) (in mM): NMDG, 92; KCl, 2.5; CaCl2, 0.5; NaH2PO4, 1.25; MgSO4, 6; NaHCO3, 30; glucose, 25; HEPES, 20; thiourea, 2; Na-ascorbate, 5; and Na-pyruvate, 3) (Ting J. T. et al., Methods Mol Biol. 2014; 1183:221-42). Slices were cut at a thickness of 300 μm with a vibroslicer. Slices were initially transferred to a holding chamber containing NMDG aCSF for 15 minutes at 34° C. Slices were then transferred to a room temperature holding chamber for at least 1 h containing HEPES aCSF (in mM): NMDG, 92; KCl, 2.5; CaCl2, 2; NaH2PO4, 1.25; MgSO4, 2; NaHCO3, 30; glucose, 25; HEPES, 20; thiourea, 2; Na-ascorbate, 5; and Na-pyruvate, 3). Subsequently, the slices were transferred to the recording chamber, in which they were submerged and perfused with aCSF containing the following (in mM): NaCl, 124; KCl, 5; NaH2PO4, 1.2; MgCl2, 1.5; CaCl2, 2.5; glucose, 10; and NaHCO3, 24), at a flow rate of 1-2 ml/min. All buffers were continuously bubbled and saturated with carbogen (95% O2/5% CO2). Current clamp recordings were carried out at 32-33° C. from visually identified pyramidal neurons from layer 5 using a borosilicate pipette (5-7 MΩ) filled with intracellular solution (in mM): K-gluconate, 135; KCl, 4; HEPES, 10; EGTA, 0.2; MgATP, 4; Na2GTP, 0.3; pH 7.3 with KOH). Signals were acquired using a Multiclamp 700B amplifier and a Digidata 1440A interface board (Molecular Devices Japan, Tokyo, Japan), filtered between 2 kHz, sampled at 10 kHz, and analyzed with pClamp10 software.
M1Rs are known to contribute to the three cholinergic effects in layer 5 pyramidal neurons: the resting membrane potential (RMP) and physiological responses such as the after hyperpolarization (AHP) the after depolarization (ADP) that typically follow brief periods of action potential generation (Gulledge et al., J. Neurosci. 2009 Aug. 5; 29(31): 9888-9902). To investigate effects of M1 PAMs with different n value on brain function, cholinergic excitation by Compound D and Compound C were assessed. First, the muscarinic receptor agonist carbachol ([…] for 10 min) was tested by bath application (FIG. 13-A, FIG. 13-B, FIG. 13-C).

[2] = target: T1, human M1R (Homo sapiens, UniProt P11229); experiment: Ca2+ flux assay in CHO-K1 cells expressing human M1 receptors (EC20 ACh); assay type: cell-based; design: expressed in transfected cells; conditions: for EC50: potentiating EC20 ACh, read-out: IP value for human M1R
T1 sequence (P11229 1-460): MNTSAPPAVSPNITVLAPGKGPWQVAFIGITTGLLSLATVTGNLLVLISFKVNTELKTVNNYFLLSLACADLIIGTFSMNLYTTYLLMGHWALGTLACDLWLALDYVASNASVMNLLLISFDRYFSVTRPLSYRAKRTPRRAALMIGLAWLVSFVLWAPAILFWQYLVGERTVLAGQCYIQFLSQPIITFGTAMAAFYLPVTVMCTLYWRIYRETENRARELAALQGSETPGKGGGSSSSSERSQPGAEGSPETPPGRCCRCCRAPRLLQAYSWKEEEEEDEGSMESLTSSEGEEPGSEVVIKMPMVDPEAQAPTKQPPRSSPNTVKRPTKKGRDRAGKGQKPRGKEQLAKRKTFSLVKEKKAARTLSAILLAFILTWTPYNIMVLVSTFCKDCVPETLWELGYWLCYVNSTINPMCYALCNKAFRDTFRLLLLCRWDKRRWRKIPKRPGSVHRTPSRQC
Description: CHO-K1 cells expressing human M1 receptors were plated on a 96-well black clear bottom plate (Corning, New York, NY) at 30,000 cells/well, and cultured at 37° C. and 5% CO2 for 1 day. The medium was removed and the cells were incubated with calcium dye buffer (HBSS (Life Technologies, Carlsbad, CA), 20 mM HEPES (Life Technologies), 0.1% fatty acid-free BSA (Wako), 0.08% pluronic F127 (Dojindo Laboratories, Kumamoto, Japan), 2.5 μg/mL Fluo-4 (Dojindo Laboratories), 1.25 mM probenecid (Dojindo Laboratories)) for 30 min at 37° C. and 5% CO2. After 30 min incubation at room temperature, the cells were stimulated with various concentrations of test compounds dissolved in assay buffer (HBSS (Life Technologies), 20 mM HEPES (Life Technologies), 0.1% fatty acid-free BSA (Wako)) containing EC20 concentrations (0.8-1 nM) of ACh and Ca^2+ response was measured using CeilLux (PerkinElmer). For determination of positive allosteric modulation activity of M1PAMs, the response to EC20 ACh was set as the 0% response and the response to 10 μM ACh was set as the 100% response. The potency of M1PAMs was shown as the value of inflection point (IP). IP value and 95% confidence intervals were calculated by XLfit of GraphPad Prism 5 Software (GraphPad Software Inc., LaJolla, CA, USA) from the data expressed as % of control.

[3] = target: T2, M4R (Homo sapiens, UniProt P08173); experiment: Ca2+ flux assay in CHO-K1 cells expressing human M4R; assay type: cell-based; design: expressed in transfected cells; host or cells: CHO-K1; conditions: read-out: IP for M4R
T2 sequence (P08173 1-479): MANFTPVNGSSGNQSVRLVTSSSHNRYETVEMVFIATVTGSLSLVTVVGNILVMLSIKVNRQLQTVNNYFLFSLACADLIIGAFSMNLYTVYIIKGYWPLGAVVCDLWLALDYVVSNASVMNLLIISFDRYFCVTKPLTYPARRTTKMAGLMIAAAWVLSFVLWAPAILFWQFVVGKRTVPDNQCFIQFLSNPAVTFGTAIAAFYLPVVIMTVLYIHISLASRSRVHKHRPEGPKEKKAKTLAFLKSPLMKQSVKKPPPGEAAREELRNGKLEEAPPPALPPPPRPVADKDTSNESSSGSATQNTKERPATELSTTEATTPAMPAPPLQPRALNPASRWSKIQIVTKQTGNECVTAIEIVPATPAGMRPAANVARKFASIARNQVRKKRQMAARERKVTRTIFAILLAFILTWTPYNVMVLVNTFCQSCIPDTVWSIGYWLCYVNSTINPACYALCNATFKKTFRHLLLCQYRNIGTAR

Row | SMILES | after hyperpolarization (AHP) [1] | resting membrane potential (RMP) [1] | after depolarization (ADP) [1] | EC50 [2] | M1R selectivity over other human muscarinic receptor subtypes ([2]; vs M2-M5R) | EC50 [3]
1 | Cc1c(Cc2ccc(-n3cccn3)cc2)cc2c(c1F)CN([C@H]1COCC[C@@H]1O)C2=O [Compound D, 4-fluoro-2-[(3S,4S)-4-hydroxytetrahydro-2H-pyran-3-yl]-5-methyl-6-[4-(1H-pyrazol-1-yl)benzyl]-2,3-dihydro-1H-isoindol-1-one] | not depolarization of RMP and suppression of AHP | not depolarization of RMP | produced significant ADP generation | 2.7 nM | not less than 3700 fold | > 10000 nM
2 | Cn1cc(-c2ccc(Cc3cc4c(=O)n([C@H]5CCCC[C@@H]5O)cnc4c4ccccc34)cn2)cn1 [Compound C, 3-((1S,2S)-2-hydroxycyclohexyl)-6-((6-(1-methyl-1H-pyrazol-4-yl)pyridin-3-yl)methyl)benzo[h]quinazoline-4(3H)-one, reference compound] | suppressed the AHP | generated subthreshold changes in the RMP | generated an ADP | 0.62 nM | – | > 1000 nM
